Reference: patent US20250339569A1, “CARBONIC ANHYDRASE IX LIGANDS” (priority 2021, published 2025)
Starred links: 1 amine or outer side, 2 acyl side, 3 side chain; linkers in the order of their positions; H or OH if unused. Positions of bridges follow the written chain, without caps; N, C: chain ends. Non-standard residues stand in square brackets, D forms with d. Residues, ends and D or L forms follow the SMILES beside them. *: point of attachment. DOTA = O=C(O)CN1CCN(CC(=O)O)CCN(CC(=O)*)CCN(CC(=O)O)CC1; X22 = CC(C)CC(=O)Nc1cccc(C[C@H](N[*:1])C(=O)[*:2])c1; mXylylene = c1cc(C[*:1])cc(C[*:2])c1; X12 = O=C(CC1CCN([*:1])CC1)[*:2]; X2 = O=C(CN1CCC(N[*:1])CC1)[*:2]; 3Amb = NCc1cccc(C(=O)O)c1; Dap = NC[C@H](N)C(=O)O; Inp = O=C(O)C1CCNCC1

Legend:
[1] = target: T1, CAIX-expressing human HT-29 colorectal cancer cells (Homo sapiens, UniProt Q16790); test: FACS binding assay (IC50 determination, competition with tracer 3BP-2776 or 3BP-4149); conditions: FACS binding assay, HT-29 cells, competition with tracer 3BP-2776 (10 nM, biotin-labeled), 4° C., 1 hour; read-out: pIC50 category (activity) (converted)
T1 construct: CAIX-expressing human HT-29 colorectal cancer cells; host or cells: HT-29 human colorectal cancer cells
In short: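 HT-29 cells in FACS buffer (PBS, 1% FCS) at 500.000 cells/ml were exposed to compounds competing with a labelled tracer, with biotinylated compounds detected by 1 μg/mL APC-streptavidin for 30 min on ice. APC/Cy5 median fluorescence was read by flow cytometry and IC50 derived by 4PL fit.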

[2] = target: T2, human carbonic anhydrase IX (hCAIX-Fc) (Homo sapiens, UniProt Q16790); test: Surface plasmon resonance assay with hCAIX-Fc; format: binding; conditions: 25° C.; for t1/2 category (activity): SPR dissociation half-life, hCAIX-Fc; for Kd: SPR, hCAIX-Fc captured, read-out: pKD category (activity) (converted)
T2 construct: purchased SinoBliological (Sino Biological) 10107-H02H

Compound | IC50 [1] | t1/2 category (activity) [2] | Kd [2]
CC(C)CC(=O)Nc1cccc(C[C@@H]2NC(=O)[C@H](CC(=O)O)NC(=O)[C@H]3CCCN3C(=O)[C@H](CCC(=O)O)NC(=O)[C@@H](NC(=O)[C@H](Cc3ccc(O)cc3)NC(=O)[C@@H](NC(=O)CN3CCC(NC(=O)CN4CCN(CC(=O)O)CCN(CC(=O)O)CCN(CC(=O)O)CC4)CC3)C(C)C)CSCc3cccc(c3)CSC[C@@H](C(N)=O)NC(=O)[C@H](CO)NC(=O)[C@H](Cc3c[nH]c4ccccc34)NC(=O)[C@H]([C@@H](C)O)NC(=O)[C@H](CC(C)C)NC2=O)c1 [3BP-4236] ({DOTA}-[X2]VYCE[dP]D[X22]LTWSC-NH2; linker 4-13 via mXylylene) | < 10 nM | B (t1/2 between 5.1 and 15.0 minutes) | < 10 nM
CC(C)C[C@@H]1NC(=O)[C@H](Cc2c[nH]c3ccccc23)NC(=O)[C@H](CC(=O)O)NC(=O)[C@H]2CCCN2C(=O)[C@H](CCC(=O)O)NC(=O)[C@@H]2CSCc3cccc(c3)CSC[C@@H](C(N)=O)NC(=O)[C@H](CNC(=O)C[C@H](NC(=O)CN3CCC(NC(=O)CN4CCN(CC(=O)O)CCN(CC(=O)O)CCN(CC(=O)O)CC4)CC3)C(=O)N2)NC(=O)[C@H](Cc2c[nH]c3ccccc23)NC(=O)[C@H]([C@@H](C)O)NC1=O [3BP-4254] ({DOTA}-[X2]DCE[dP]DWLTW[Dap]C-NH2; lactam 2-11; linker 3-12 via mXylylene) | < 10 nM | C (t1/2 between 2.1 and 5.0 minutes) | < 10 nM
CC(C)C[C@@H]1NC(=O)[C@H](Cc2c[nH]c3ccccc23)NC(=O)[C@H](CC(=O)O)NC(=O)[C@H]2CCCN2C(=O)[C@H](CCC(=O)O)NC(=O)[C@@H]2CSCc3cccc(c3)CSC[C@@H](C(N)=O)NC(=O)[C@H](CNC(=O)C[C@H](NC(=O)C3CCN(C(=O)CN4CCN(CC(=O)O)CCN(CC(=O)O)CCN(CC(=O)O)CC4)CC3)C(=O)N2)NC(=O)[C@H](Cc2c[nH]c3ccccc23)NC(=O)[C@H]([C@@H](C)O)NC1=O [3BP-4256] ({DOTA-Inp}-DCE[dP]DWLTW[Dap]C-NH2; lactam 1-10; linker 2-11 via mXylylene) | < 10 nM | C (t1/2 between 2.1 and 5.0 minutes) | < 10 nM

Second part, the molecule after the results:

IC50 [1] | t1/2 category (activity) [2] | Kd [2] | Compound
< 10 nM | D (t1/2≤2.0 minutes) | < 10 nM | CC(C)C[C@@H]1NC(=O)[C@H](Cc2c[nH]c3ccccc23)NC(=O)[C@H](CC(=O)O)NC(=O)[C@H]2CCCN2C(=O)[C@H](CCC(=O)O)NC(=O)[C@@H]2CSCc3cccc(c3)CSC[C@@H](C(N)=O)NC(=O)[C@H](CNC(=O)C[C@H](NC(=O)CC3CCN(C(=O)CN4CCN(CC(=O)O)CCN(CC(=O)O)CCN(CC(=O)O)CC4)CC3)C(=O)N2)NC(=O)[C@H](Cc2c[nH]c3ccccc23)NC(=O)[C@H]([C@@H](C)O)NC1=O [3BP-4259] ({DOTA}-[X12]DCE[dP]DWLTW[Dap]C-NH2; lactam 2-11; linker 3-12 via mXylylene)
< 10 nM | D (t1/2≤2.0 minutes) | < 10 nM | CC(C)C[C@@H]1NC(=O)[C@H](Cc2c[nH]c3ccccc23)NC(=O)[C@H](CC(=O)O)NC(=O)[C@H]2CCCN2C(=O)[C@H](CCC(=O)O)NC(=O)[C@@H]2CSCc3cccc(c3)CSC[C@@H](C(N)=O)NC(=O)[C@H](CNC(=O)C[C@H](NC(=O)c3cccc(CNC(=O)CN4CCN(CC(=O)O)CCN(CC(=O)O)CCN(CC(=O)O)CC4)c3)C(=O)N2)NC(=O)[C@H](Cc2c[nH]c3ccccc23)NC(=O)[C@H]([C@@H](C)O)NC1=O [3BP-4260] ({DOTA-3Amb}-DCE[dP]DWLTW[Dap]C-NH2; lactam 1-10; linker 2-11 via mXylylene)
